These results are taken from patent EP2150620B1, “Method for preparing C-6 phosphorylated D-aldohexoses and C-6 phosphorylated D-aldohexose derivatives, and new C-6 phosphorylated D-aldohexose derivatives” (Libragen, priority 2007, dated 2008).

pKi: −log10 of the molar value. Like-named read-outs stand apart in the source and are kept apart here.

Experiment [1] concerns polyphosphate-glucose phosphotransferase activity. Nature of the experiment: C-6 phosphorylation with enzymatic extracts of other Mycobacterium strains (Example 3). Particulars: all the enzymatic preparations (five strains); acceptor 150 mM; 24 hours at 30°C.
Excerpt: The bacterial strains used are the followings: • Mycobacterium phlei ATCC 11758, • Mycobacterium smegmatis DSMZ 43465 (equivalent to ATCC 607), • Mycobacterium smegmatis ATCC 607 (equivalent to DSMZ 43465) • Mycobacterium smegmatis ATCC 700084 (or mc^2 155) • Mycobacterium sp DSMZ 2966 (equivalent to NRRL B-3683)
Experiment [2] has as its system polyphosphate-glucose phosphotransferase. The conditions noted are these: cited from earlier work; for activity as phosphoryl acceptor: Arthrobacter sp. strain KM, irrespective of the phosphoryl donor, polyphosphate or ATP.
In another experiment the target is T1, rat brain hexokinase (Rattus norvegicus, UniProt P05708).
T1 sequence (P05708 1-918): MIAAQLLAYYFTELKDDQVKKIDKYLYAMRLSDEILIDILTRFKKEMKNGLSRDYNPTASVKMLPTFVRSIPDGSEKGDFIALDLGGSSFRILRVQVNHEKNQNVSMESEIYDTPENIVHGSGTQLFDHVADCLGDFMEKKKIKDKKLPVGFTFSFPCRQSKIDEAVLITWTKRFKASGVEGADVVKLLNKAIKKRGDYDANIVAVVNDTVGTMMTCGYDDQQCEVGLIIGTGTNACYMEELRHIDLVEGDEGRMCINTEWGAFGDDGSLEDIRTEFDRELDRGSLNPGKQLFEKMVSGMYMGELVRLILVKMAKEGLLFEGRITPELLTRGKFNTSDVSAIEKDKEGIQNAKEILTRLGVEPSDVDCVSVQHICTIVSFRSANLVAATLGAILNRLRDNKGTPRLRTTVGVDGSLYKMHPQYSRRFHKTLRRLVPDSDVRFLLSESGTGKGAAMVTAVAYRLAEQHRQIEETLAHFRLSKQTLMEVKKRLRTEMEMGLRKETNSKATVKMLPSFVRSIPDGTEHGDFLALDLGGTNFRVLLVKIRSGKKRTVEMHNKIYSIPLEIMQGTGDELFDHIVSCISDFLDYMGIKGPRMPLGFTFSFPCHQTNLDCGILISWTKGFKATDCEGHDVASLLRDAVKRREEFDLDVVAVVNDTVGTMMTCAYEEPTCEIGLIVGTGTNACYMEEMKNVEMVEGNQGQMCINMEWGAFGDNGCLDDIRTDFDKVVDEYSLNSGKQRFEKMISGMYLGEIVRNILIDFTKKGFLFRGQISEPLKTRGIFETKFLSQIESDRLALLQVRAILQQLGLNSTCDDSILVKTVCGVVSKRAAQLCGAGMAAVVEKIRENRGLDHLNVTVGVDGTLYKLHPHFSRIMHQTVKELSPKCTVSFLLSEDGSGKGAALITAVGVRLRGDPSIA
The conditions noted are these: relative to glucose 6-phosphate; cited from earlier work.

Experiment [3] concerns the target polyphosphate-glucose phosphotransferase (Mycobacterium tuberculosis, UniProt P9WIN1). Particulars: cited from earlier work; for pKi: read-out: Ki (ATP inhibits at high concentration).
Experiment [4] relates to polyphosphate-glucose phosphotransferase. Particulars: cited from earlier work; for inhibition of the enzyme: donor ATP; for Km: pH 7.5, 30°C.
The test system is the same in experiment [5]. The conditions noted are these: acceptor glucose; cited from earlier work.
For experiment [6] the test system is unchanged. The conditions noted are these: acceptor D-glucose; label is the phosphate donor; Propionibacterium arabinosum enzyme; cited from earlier work.
Experiment [7] deals with polyphosphate-glucose phosphotransferase activity. Nature of the experiment: C-6 phosphorylation of acceptors with polyphosphate by an enzymatic extract, detected by thin layer chromatography (Examples 1 and 2). Particulars: Example 2; same synthesis and detection conditions as Example 1.
The subject of experiment [8] is polyphosphate-glucose phosphotransferase. The conditions noted are these: donor ATP, acceptor D-glucose; cited from earlier work.
[9] abbreviates: donor polyphosphate, acceptor D-glucose.

polyphosphate-glucose phosphotransferase (Mycobacterium tuberculosis, UniProt P9WIN1), sequence (P9WIN1 whole entry): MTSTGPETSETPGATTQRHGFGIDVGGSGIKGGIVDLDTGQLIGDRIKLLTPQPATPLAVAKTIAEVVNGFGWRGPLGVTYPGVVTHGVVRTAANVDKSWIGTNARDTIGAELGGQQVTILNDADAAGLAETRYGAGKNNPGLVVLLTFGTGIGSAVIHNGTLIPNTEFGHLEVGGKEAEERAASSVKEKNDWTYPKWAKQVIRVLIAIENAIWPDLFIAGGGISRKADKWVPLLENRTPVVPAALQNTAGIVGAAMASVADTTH

Take `O=CC[C@@H](O)[C@H](O)[C@H](O)COP(=O)(O)O` [2-deoxy-D-glucose-6-phosphate]: in [1], the “synthesis of the phosphorylated product by the enzymatic preparations” value was “able to catalyze the synthesis”.
In the case of `O=CC[C@@H](O)[C@H](O)[C@H](O)CO` [2-deoxy-D-glucose], the “activity as phosphoryl acceptor” value in experiment [2] is on record as “inert”.
Take `O=C[C@H](O)[C@@H](O)[C@H](O)[C@H](S)COP(=O)(O)O` [5-thioglucose 6-phosphate]: on rat brain hexokinase, the “inhibition constant Ki of rat brain hexokinase, lower than that seen with glucose 6-phosphate” value is 10 fold.
For `Nc1ncnc2c1ncn2[C@@H]1O[C@H](COP(=O)(O)OP(=O)(O)O)[C@@H](O)[C@H]1O` [ADP], the “inhibition of the enzyme” value was “inhibit” in experiment [3] (donor ATP, acceptor D-glucose) and “inhibit” in experiment [4] (acceptor D-glucose).
Take `Nc1ncnc2c1ncn2[C@@H]1O[C@H](COP(=O)(O)O)[C@@H](O)[C@H]1O` [AMP]: the “inhibition of the enzyme” value in experiment [3] (donor ATP, acceptor D-glucose) is recorded as “inhibit”.
For `Nc1ncnc2c1ncn2[C@@H]1O[C@H](COP(=O)(O)OP(=O)(O)OP(=O)(O)O)[C@@H](O)[C@H]1O` [ATP, adenosine triphosphate], the “activity with phosphate donor” value in experiment [5] is listed as “No activity with ATP”. Also, the Turnover in [3] (acceptor D-glucose, label is the phosphate donor) was 116 s⁻¹; in [6], “Dimer: 2 x 30000 Turnover: 63 s^-1”; in experiment [4] (acceptor D-glucose, label is the phosphate donor, Propionibacterium shermanii enzyme) it was 25 s⁻¹. Moreover, the Km is 880 µM in experiment [3] (pH 7.5, donor ATP); 1400 µM in experiment [3] (pH 8.6, donor ATP); 1500 µM in [4] (label is the phosphate donor). The pKi was 2.18 in experiment [3] (pH 7.5, donor ATP) and 2.13 in experiment [3] (pH 8.6, donor ATP).
Consider `Nc1ccn([C@@H]2O[C@H](COP(=O)(O)OP(=O)(O)OP(=O)(O)O)[C@@H](O)[C@H]2O)c(=O)n1` [CTP], for which the Km in experiment [4] (label is the phosphate donor) was 5900 µM.
Turning to `O=C[C@@H](O)[C@H](O)[C@H](O)[C@H](O)CO` [D-altrose], the “phosphorylation of the acceptor (new substance in the 24 hours-incubation medium)” value (“phosphorylation of the acceptor” below) in experiment [7] is listed as “not phosphorylated”.
`O=C(CO)[C@@H](O)[C@H](O)[C@H](O)CO` [D-fructose]: the “activity as phosphoryl acceptor” value in [2] was “inert”. Besides, the “phosphorylation of the acceptor” value in experiment [7] is “not phosphorylated”.
Regarding `O=C[C@H](O)[C@@H](O)[C@@H](O)[C@H](O)CO` [D-galactose], the “activity as phosphoryl acceptor” value in experiment [2] is recorded as “inert”. Further, the “phosphorylation of the acceptor” value in experiment [7] is listed as “not phosphorylated”.
Take `O=P(O)(O)OCC1OC(OP(=O)(O)O)C(O)C(O)C1O` [D-glucose-1,6-bisphosphate]: the “synthesis of the phosphorylated product by the enzymatic preparations” value in [1] was “could not be synthesized”.
On the same count and under the same terms, the entry for `O=P(O)(O)OC[C@H]1O[C@@H](S)[C@H](O)[C@@H](O)[C@@H]1O` [D-glucothiose-6-phosphate] is “able to catalyze the synthesis”.
For `O=C[C@@H](O)[C@@H](O)[C@H](O)[C@H](O)CO` [D-mannose], the results for the “activity as % of the activity with glucose” value in experiment [2] (donor ATP) and in [2] (donor polyphosphate) were “About 30% of the activity with glucose” and around 40%, respectively. Besides, the Km in experiment [2] (pH 7.0, 30°C, donor polyphosphate) is 150 µM.
`O=C[C@H](O)[C@H](O)[C@H](O)CO` [D-ribose]: the “phosphorylation of the acceptor” value in experiment [7] was “not phosphorylated”.
For `O=C[C@H](O)[C@@H](O)[C@H](O)CO` [D-xylose], the “inhibition of the enzyme” value is on record as “inhibit” in experiment [3] (donor ATP, acceptor D-glucose) and “inhibits” in experiment [4] (acceptor D-glucose).
On to `O=C(CO)[C@@H](O)[C@H](O)[C@H](O)COP(=O)(O)O` [Fru6P], for which the “inhibition of the enzyme” value in [3] (donor ATP, acceptor D-glucose) was “inhibit”; in experiment [3] (setting [9]) it was “inhibit”.
On to `O=P(O)(O)OC[C@H]1OC(O)[C@H](O)[C@@H](O)[C@@H]1O` (stereo partly drawn) [Glc6P], for which the “inhibition of the enzyme” value in [3] (setting [9]) and in experiment [4] (acceptor D-glucose) was “inhibit” each time.
`[Cl-].[Na+]` [NaCl]: the “inhibits above (concentration)” value in experiment [8] is listed as “NaCl above 100 mM inhibits. Mol. weight: 59000”.
As to `O=P(O)(O)OP(=O)(O)OP(=O)(O)O` [TriPoly(P)], in experiment [4] (acceptor D-glucose), the “inhibition of the enzyme” value is listed as “inhibits”.
As for `O=P(O)(O)O[C@H]1O[C@H](CO)[C@@H](O)[C@H](O)[C@H]1O` [α-D-glucose-1-phosphate], in experiment [7], the “phosphorylation of the acceptor” value is listed as “not phosphorylated”.
